From patent US9238795B2, “Populations of smooth muscle cells of specific embryonic lineages” (Cambridge Enterprise Limited, priority 2011, dated 2016)
“Also recorded” adds a separate entry of the source.

Legend:
Format in all cases: cell-based, human
hESCs = assay: QPCR analysis of mesoderm subtype markers in differentiating hESCs; conditions: for Expression of the lateral plate marker KDR: in the presence of activin A (10 ng/ml), BMP4 0 to 100 ng/ml
Method: Human embryonic stem cells (hESCs) were cultured in chemically defined medium (CDM) with activin A (10 ng/mL) and FGF2 (20 ng/mL) to maintain pluripotency (Vallier et al, 2005).
An efficient 36 h protocol to differentiate hESCs into early mesoderm was named FlyB (F, FGF2 at 20 ng/ml; Ly, LY294002 at 10 μM and B, BMP4 at 10 ng/ml). Differentiation of paraxial mesoderm can be induced by removal of BMP4 and blockage of the PI3K pathway (1.5 day FLyB+3.5 days FLy, where F is FGF2 at 5-25 ng/ml and Ly is LY294002 at 5-10 μM). Differentiation of lateral plate mesoderm can be induced by increasing the levels of BMP4 and removal of Ly (1.5 day FLyB+3.5 days FB, where F is FGF2 at 5-25 ng/ml and B is BMP4 at […]).
(§1) Total RNA was extracted with RNeasy Mini kit according to the manufacturer's instructions (QIAGEN). One microgram of RNA was reverse-transcribed with Fermentas Maxima First Strand cDNA Synthesis Kit. Quantitative polymerase chain reaction (QPCR) mixtures were prepared as described (Applied Biosystems SYBR Green PCR Master Mix). QPCR reactions were performed by Applied Biosystems 7500 Fast Real-Time PCR System with technical duplicates and normalized to Porphobilinogen Deaminase (PBGD) in the same run. Error bars on all QPCR graphs represent standard error of mean from three independent biological replicates.
The protocol used is shown schematically in FIG. 1A, depicting the growth factors used and the duration of the treatment. For the first 36 hours, growth factors used were FLyB10 [FGF2 (20 ng/mL), BMP4 (10 ng/mL) and LY294002 (10 μM)] to induce primitive streak). The subsequent 3.5 days of differentiation specifies mesoderm subtypes. FLy [FGF2 (20 ng/mL) and LY294002 (10 μM)] for somitic mesoderm; FB50 [FGF2 (20 ng/mL) and BMP4 (50 ng/mL)] for lateral mesoderm.
QPCR analysis was performed for Brachyury, MEOX1 and FLK1 in hESCs grown according to the protocol depicted in FIG. 1A and harvested at day 5. The BMP4 gradient tested ranged from 0 ng/mL (Nog) to 100 ng/mL (B100). The bars in FIG. 2 represent the absence or presence of activin A (A) added at 10 ng/ml respectively. […] Therefore, absence of activin A promoted mesoderm formation.
We then evaluated the effect of 10 μM LY294002 (Ly) on mesoderm subtype specification. QPCR analysis of LMO2, CD31, PECAM1, NKX2.5, ISL1, MEOX1, TBX6, TCF15 and PAX1 was performed in hESCs grown for 36 h in FLyB10 and then for 3.5 additional days in F or FB50, with (RH bars) or without (LH bars) […]. […] On the other hand, the presence of Ly promoted the expressions of somitic markers—MEOX1 and TBX6. […] Again, the presence of 50 ng/ml BMP4 (B50) inhibited the expression of all paraxial markers and promoted the expression of lateral plate markers.

derived SMCs [1] = assay: Calcium flux measurement with Fluo-4; conditions: carbachol 100 μM
Method: (§2) On culture dishes, SMCs were loaded with the calcium-sensitive fluorophore, Fluo-4 AM (2.5 μM; Molecular Probes). Cells were typsinised into single-cell suspension for calcium flux measurement using the CyAn ADP flow cytometer (Packman Coulter). Contraction was induced by treating the cells with carbachol (100 μM). Fluo-4 was excited by the 488 nm laser and the fluorescence emission was measured by the FL1 channel. Cells were analysed just before addition of carbachol, 1 minute and 3 minutes after addition. On the other hand, contraction images of adherent SMCs were acquired by an inverted microscope (Olympus) before and after 10 minutes of carbachol treatment.
Changes of calcium signalling in cells are indicative of their contractile properties in response to carbachol, a potent vasoconstrictor. The origin-specific SMCs were loaded with fluo-4, a calcium-sensitive dye, prior to the addition of carbachol (FIG. 13) and fluorescent emission from the fluo-4 measured over time (T) after the addition of carbachol to the origin-specific SMCs. Hela cells were used as negative control.
To assess SMC contractile potential, we initially performed immunostaining for vinculin and phalloidin staining for actin filaments, Well-developed focal adhesion complexes were detected in all three SMC subtypes. The cells were then preloaded with a calcium-sensitive dye, Fluo-4. Carbachol (100 μM) stimulated an increase in Fluo-4 fluorescence intensity in the derived SMCs within 1 min of treatment (FIG. 14), indicating increased intracellular calcium flux. After 2 min of treatment, Fluo-4 intensity decreased, approaching original basal levels by 5 min.

derived SMCs [2] = assay: Contraction study; conditions: for Percentage of all derived SMCs that contracted: upon carbachol or angiotensin II treatment
Method: as §2
Over 50% and 20% of all derived SMCs contracted upon carbachol and angiotensin II treatments, respectively.

[3] = tested on: hPSC-derived SMCs and rat aortic SMCs; assay: MMP and TIMP expression after IL-1β treatment (qRT-PCR); conditions: IL-1β 10 ng/ml
Method: as §1
Only NE-SMCs proliferated in response to TGF-β1 (FIGS. 24, 25). TGF-β1 may have enhanced cell proliferation by autocrine production of TGF-β2 and PDGFA. We investigated whether TGF-β1 stimulated greater auto-induction of TGF-β2 and PDGFA in SMCs of a neuroectoderm origin. […] Correspondingly, elevated TGFB2 and PDGFA protein levels were found in NE-SMC lysates after TGF-β1 treatment (FIG. 22). Taken together, the data on requirement for MKL2 and their unique proliferative and secretory responses validate the hypothesis that our different SMC subtypes are analogous to the distinct lineage-dependent SMC populations documented in vivo. […]

LM-SMC = assay: Proliferation response by MTT assay; conditions: over 3 d; Ang II 1 μM, TGF-β1 5 ng/ml, serum 10%
Excerpt: (§3) To confirm that we had generated origin-specific SMC subtypes, we used cytokines known to induce unique responses in aortic SMCs of distinct origins. Angiotensin II (Ang II) promotes medial hyperplasia in the ascending aorta (neuroectoderm derivative) but not the descending aorta (mesoderm derivative), TGF-β1 also encourages greater cell proliferation in SMCs of neuroectoderm origin compared to those of mesodermal origin. […] Cell cycle analysis confirmed that Ang II, TGF-β1 or serum each increased the proportion of NE-SMCs in S and G2-M phases compared to vehicle control after 24 h (FIGS. 25A and 25B).

NE-SMC = assay: Proliferation response by MTT assay; conditions: over 3 d; Ang II 1 μM, TGF-β1 5 ng/ml, serum 10%
Excerpt: as §3

PM-SMC = assay: Proliferation response by MTT assay; conditions: over 3 d; Ang II 1 μM, TGF-β1 5 ng/ml, serum 10%
Excerpt: as §3

NE-SMCs [4] = assay: Cell cycle analysis; conditions: after 24 h, compared to vehicle control
Excerpt: as §3

NE-SMCs [5] = assay: Auto-induction of TGF-β2 and PDGFA (qRT-PCR, western blot)
Method: as §1
To obtain protein extracts, cells were washed twice with ice-cold PBS. Ice-cold RIPA buffer was then added to the cells. Cells were scraped off the culture dishes and transferred into a centrifuge tube. Suspension was agitated by an orbital shaker for 15 minutes to lyse the cells at 4° C. Lysate was centrifuged at 14,000 g in a precooled centrifuge for 15 minutes and the supernatant was kept frozen at −80. Protein concentrations were determined using Thermo Scientific BCA Protein Assay Kit. 20 μg total protein was separated by SDS-PAGE and on stacking gel (30% acrylamide, 1M Tris, 10% SDS, 10% APS, TEMED) then transferred to a nitrocellulose membrane. […]

[6] = 50 ng/ml BMP4 (B50), 36 h FLyB10 then 3.5 days

O=c1cc(N2CCOCC2)oc2c(-c3ccccc3)cccc12 [LY294002, 2-morpholin-4-yl-8-phenylchromen-4-one, reference compound]
Expression of lateral plate markers LMO2, PECAM1, NKX2-5, ISL1 (hESCs; 10 μM LY294002 in F or FB50, compared to no LY294002): had no effect or inhibited; also recorded: significantly downregulated
Expression of paraxial markers MEOX1, TBX6, TCF15, PAX1 (hESCs; 10 μM LY294002 in the presence of 20 ng/ml FGF2 (F) alone, versus no LY294002): promote paraxial mesoderm patterning; also recorded: significantly promoted

C[N+](C)(C)CCOC(N)=O [carbachol]
Fluo-4 fluorescence intensity (intracellular calcium flux) (derived SMCs [1]): transient increase
Time to increase in Fluo-4 fluorescence intensity (derived SMCs [1]): ≤ 1 min
Fluo-4 fluorescence intensity (intracellular calcium flux) (derived SMCs [1]; listed as Carbachol): increase
Change of cell surface area in contracting cells (derived SMCs [2]; 10 min of carbachol treatment, n=20): 10-20%
Percentage of all derived SMCs that contracted (derived SMCs [2]): Over 50%

IL-1β: an atherogenic cytokine
Induction of Mmp9 relative to control in rat SMCs versus hPSC-derived SMCs ([3]; 6 h): ~100 fold
MMP9 and TIMP1 expression levels ([3]; SMC subtypes and rat SMCs of distinct origins): differentially activated

TGF-β1: homodimeric polypeptide which regulates proliferation and differentiation
Proliferation (LM-SMC): did not
Proliferation (NE-SMC): proliferated
Proliferation (PM-SMC): did not
Proportion of cells in S and G2-M phases (NE-SMCs [4]): increased
TGFB2 and PDGFA expression (NE-SMCs [5]; 10 h of TGF-β1 (5 ng/ml), compared with vehicle control, only in NE-SMCs): significantly upregulated
TGFB2 and PDGFA protein levels in lysates (NE-SMCs [5]; after TGF-β1 treatment, western blot): elevated

angiotensin II: vasoconstrictor; promotes medial hyperplasia in the ascending aorta (DRVYIHPF; Angiotensin-2; UniProt P01019 25-32, looked up) [reference compound]
Percentage of all derived SMCs that contracted (derived SMCs [2]): > 20%
Proliferation (LM-SMC): did not
Proliferation (NE-SMC): proliferated
Proliferation (PM-SMC): did not
Proportion of cells in S and G2-M phases (NE-SMCs [4]): increased

B1: activin A: dimeric polypeptide stimulating the Activin/Nodal pathway (protein, UniProt P08476 311-426, looked up)
Inhibin beta A chain: GLECDGKVNICCKKQFFVSFKDIGWNDWIIAPSGYHANYCEGECPSHIAGTSGSSLSFHSTVINHYRMRGHSPFANLKSCCVPTKLRPMSMLYYDDGQNIIKKDIQNMIVEECGCS
modifications: Inhibin beta A chain
Expression of Brachyury (T), MEOX1 and FLK1 (hESCs; absence versus presence of activin A at 10 ng/ml, day 5): upregulated
Requirement for mesoderm patterning (hESCs; hESCs harvested at day 5): not required

B2: BMP4: Bone Morphogenic Protein 4, TGFβ ligand stimulating SMAD1, SMAD5 and SMAD9 signalling (protein, UniProt P12644 293-408, looked up)
Bone morphogenetic protein 4: SPKHHSQRARKKNKNCRRHSLYVDFSDVGWNDWIVAPPGYQAFYCHGDCPFPLADHLNSTNHAIVQTLVNSVNSSIPKACCVPTELSAISMLYLDEYDKVVLKNYQEMVVEGCGCR
Expression of all paraxial markers (hESCs; [6]): inhibited
Expression of lateral plate markers (hESCs; [6]): promoted
Expression of FLK1 (hESCs; hESCs harvested at day 5, BMP4 0 to 100 ng/mL): increased
Expression of the lateral plate marker KDR (hESCs; day 5): promote the expression

B3: Noggin: a BMP antagonist (protein, UniProt Q13253 28-232, looked up)
Noggin: QHYLHIRPAPSDNLPLVDLIEHPDPIFDPKEKDLNETLLRSLLGGHYDPGFMATSPPEDRPGGGGGAAGGAEDLAELDQLLRQRPSGAMPSEIKGLEFSEGLAQGKKQRLSKKLRRKLQMWLWSQTFCPVLYAWNDLGSRFWPRYVKVGSCFSKRSCSVPEGMVCKPSKSVHLTVLRWRCQRRGGQRCGWIPIQYPIISECKCSC
Expression of the lateral plate marker KDR (hESCs; day 5): same effect as B0
